Measurements published in PubChem BioAssay AID328 (DTP/NCI, 2004).
Toxic doses and inconclusive results are not listed.

Test system: BDF1 mice, P388 leukemia ip, median survival T/C
Test: NCI In Vivo Anticancer Drug Screen. Data for tumor model P388 Leukemia (intraperitoneal) in B6D2F1 (BDF1) mice
Conditions: endpoint: median survival time, higher = longer survival
How it was run: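 Survival ratio, drug arm over vehicle arm, in mice with a transplanted tumour.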

[1] = dose: 100.0 mg/kg/injection, schedule: Q01DX009 (ip), vehicle: saline with Tween-80
[2] = dose: 200.0 mg/kg/injection, schedule: Q01DX009 (ip), vehicle: saline with Tween-80
[3] = dose: 400.0 mg/kg/injection, schedule: Q01DX009 (ip), vehicle: saline with Tween-80
[4] = dose: 25.0 mg/kg/injection, schedule: Q01DX009 (ip), vehicle: saline with Tween-80
[5] = dose: 50.0 mg/kg/injection, schedule: Q01DX009 (ip), vehicle: saline with Tween-80
[6] = dose: 100.0 mg/kg/injection, schedule: Q04DX003 (ip), vehicle: saline with Tween-80
[7] = dose: 200.0 mg/kg/injection, schedule: Q04DX003 (ip), vehicle: saline with Tween-80
[8] = dose: 400.0 mg/kg/injection, schedule: Q04DX003 (ip), vehicle: saline with Tween-80
[9] = dose: 12.5 mg/kg/injection, schedule: Q01DX009 (ip), vehicle: saline with Tween-80

## CC1CN(Cc2ccccc2)CC(C)N1 (stereo not drawn)
dose: 50.0 mg/kg/injection, schedule: Q04DX003 (ip), vehicle: water
  T/C: 106 % of control
dose: 100.0 mg/kg/injection, schedule: Q04DX003 (ip), vehicle: water
  T/C: 104 % of control
dose: 200.0 mg/kg/injection, schedule: Q04DX003 (ip), vehicle: water
  T/C: 92 % of control

## CSc1ncc(Br)c(C(=O)O)n1
[1]
  T/C: 95 % of control
[2]
  T/C: 100 % of control
[3]
  T/C: 104 % of control

## Nc1nc(CNc2ccc(Cl)cc2)nc(Nc2ccccc2)n1
dose: 100.0 mg/kg/injection, schedule: Q04DX003 (ip), vehicle: saline
  T/C: 105 % of control
dose: 200.0 mg/kg/injection, schedule: Q04DX003 (ip), vehicle: saline
  T/C: 100 % of control
dose: 400.0 mg/kg/injection, schedule: Q04DX003 (ip), vehicle: saline
  T/C: 100 % of control

## COC1CCC(OC2CC(C3(C)CCC4(CC(O)C(C)C(C(C)/C=C(\C)C(=O)C(C)CC(C)C(=O)O)O4)O3)OC3(OC(C4OC(O)(CO)C(C)CC4C)CC3C)C2C)OC1C (stereo not drawn)
dose: 62.5 micrograms/kg/injection, schedule: Q01DX009 (ip), vehicle: Klucel (hydroxypropylcellulose) (HPC)
  T/C: 111 % of control
dose: 125.0 micrograms/kg/injection, schedule: Q01DX009 (ip), vehicle: Klucel (hydroxypropylcellulose) (HPC)
  T/C: 97 % of control
dose: 250.0 micrograms/kg/injection, schedule: Q01DX009 (ip), vehicle: Klucel (hydroxypropylcellulose) (HPC)
  T/C: 97 % of control
dose: 500.0 micrograms/kg/injection, schedule: Q01DX009 (ip), vehicle: Klucel (hydroxypropylcellulose) (HPC)
  T/C: 97 % of control

## O=CNNc1ccc([N+](=O)[O-])cc1
dose: 100.0 mg/kg/injection, schedule: Q01DX009 (ip), vehicle: Klucel (hydroxypropylcellulose) (HPC)
  T/C: 90 % of control
dose: 100.0 mg/kg/injection, schedule: Q04DX003 (ip), vehicle: Klucel (hydroxypropylcellulose) (HPC)
  T/C: 105 % of control
dose: 200.0 mg/kg/injection, schedule: Q01DX009 (ip), vehicle: Klucel (hydroxypropylcellulose) (HPC)
  T/C: 100 % of control
dose: 200.0 mg/kg/injection, schedule: Q04DX003 (ip), vehicle: Klucel (hydroxypropylcellulose) (HPC)
  T/C: 100 % of control
dose: 400.0 mg/kg/injection, schedule: Q01DX009 (ip), vehicle: Klucel (hydroxypropylcellulose) (HPC)
  T/C: 104 % of control
dose: 400.0 mg/kg/injection, schedule: Q04DX003 (ip), vehicle: Klucel (hydroxypropylcellulose) (HPC)
  T/C: 105 % of control

## Oc1cccc2ccc(CC(O)(c3ccccc3)c3ccccc3)nc12
[4]
  T/C: 108 % of control
[5]
  T/C: 99 % of control
[1]
  T/C: 108 % of control

## CCCCNC(c1ccc(C=NC(CC)(CO)CO)cc1)C(Br)(Br)Br (stereo not drawn)
dose: 50.0 mg/kg/injection, schedule: Q04DX003 (ip), vehicle: other
  T/C: 100 % of control
dose: 100.0 mg/kg/injection, schedule: Q04DX003 (ip), vehicle: other
  T/C: 100 % of control
dose: 200.0 mg/kg/injection, schedule: Q04DX003 (ip), vehicle: other
  T/C: 104 % of control

## CCCCCCCCCC(=O)CCCC
[6]
  T/C: 100 % of control
[7]
  T/C: 91 % of control
[8]
  T/C: 108 % of control

## O=C/C(Cl)=C(/Cl)C(=O)O
dose: 6.25 mg/kg/injection, schedule: Q04DX002 (ip), vehicle: saline with Tween-80
  T/C: 110 % of control
dose: 12.5 mg/kg/injection, schedule: Q04DX002 (ip), vehicle: saline with Tween-80
  T/C: 108 % of control
dose: 25.0 mg/kg/injection, schedule: Q04DX002 (ip), vehicle: saline with Tween-80
  T/C: 103 % of control

## O=C(O)C1CC2CCC1C2 (stereo not drawn)
dose: 100.0 mg/kg/injection, schedule: Q01DX001 (ip), vehicle: saline with Tween-80
  T/C: 100 % of control
dose: 200.0 mg/kg/injection, schedule: Q01DX001 (ip), vehicle: saline with Tween-80
  T/C: 95 % of control
dose: 400.0 mg/kg/injection, schedule: Q01DX001 (ip), vehicle: saline with Tween-80
  T/C: 100 % of control

## CCCCNC(=O)Nc1ccccc1Cl
[6]
  T/C: 100 % of control
[7]
  T/C: 100 % of control
[8]
  T/C: 95 % of control

## O=C(N=Nc1c(O)[nH]c2ccccc12)C(=O)Nc1cccc(C(F)(F)F)c1
[5]
  T/C: 87 % of control

## NCCCC(N)(CO)C(=O)O (stereo not drawn)
dose: 50.0 mg/kg/injection, schedule: Q01DX009 (ip), vehicle: saline
  T/C: 91 % of control
dose: 100.0 mg/kg/injection, schedule: Q01DX009 (ip), vehicle: saline
  T/C: 97 % of control
dose: 200.0 mg/kg/injection, schedule: Q01DX009 (ip), vehicle: saline
  T/C: 100 % of control

## Cc1cc(-c2ccc(NC(=O)Nc3cccc(F)c3)c(C)c2)ccc1NC(=O)Nc1cccc(F)c1
dose: 50.0 mg/kg/injection, schedule: Q01DX005 (ip), vehicle: saline with Tween-80
  T/C: 91 % of control
dose: 100.0 mg/kg/injection, schedule: Q01DX005 (ip), vehicle: saline with Tween-80
  T/C: 86 % of control
dose: 200.0 mg/kg/injection, schedule: Q01DX005 (ip), vehicle: saline with Tween-80
  T/C: 86 % of control

## Oc1cccc2cccnc12
[5]
  T/C: 100 % of control
[1]
  T/C: 97 % of control

## CCN1CC1
dose: 3.12 mg/kg/injection, schedule: Q01DX001 (ip), vehicle: Klucel (hydroxypropylcellulose) (HPC)
  T/C: 113 % of control
dose: 6.25 mg/kg/injection, schedule: Q01DX001 (ip), vehicle: Klucel (hydroxypropylcellulose) (HPC)
  T/C: 118 % of control
dose: 6.25 mg/kg/injection, schedule: Q01DX009 (ip), vehicle: Klucel (hydroxypropylcellulose) (HPC)
  T/C: 90 % of control
dose: 12.5 mg/kg/injection, schedule: Q01DX001 (ip), vehicle: Klucel (hydroxypropylcellulose) (HPC)
  T/C: 86 % of control
dose: 12.5 mg/kg/injection, schedule: Q01DX009 (ip), vehicle: Klucel (hydroxypropylcellulose) (HPC)
  T/C: 86 % of control

## CC(=O)Nc1ccccc1C1SCCCS1
dose: 50.0 mg/kg/injection, schedule: Q04DX002 (ip), vehicle: saline with Tween-80
  T/C: 102 % of control
dose: 100.0 mg/kg/injection, schedule: Q04DX002 (ip), vehicle: saline with Tween-80
  T/C: 98 % of control
dose: 200.0 mg/kg/injection, schedule: Q04DX002 (ip), vehicle: saline with Tween-80
  T/C: 106 % of control

## COc1cc2cc[n+](C)c(Cc3ccccc3)c2cc1OC
[9]
  T/C: 100 % of control
dose: 50.0 mg/kg/injection, schedule: Q01DX009 (ip), vehicle: Klucel (hydroxypropylcellulose) (HPC)
  T/C: 159 % of control
dose: 50.0 mg/kg/injection, schedule: Q04DX003 (ip), vehicle: saline with Tween-80
  T/C: 113 % of control
[6]
  T/C: 90 % of control

## COc1ccc(NC(=S)Nc2ccccn2)cc1
[9]
  T/C: 100 % of control
[4]
  T/C: 100 % of control
[5]
  T/C: 104 % of control
dose: 100.0 mg/kg/injection, schedule: Q01DX001 (ip), vehicle: saline
  T/C: 103 % of control
[1]
  T/C: 100 % of control
dose: 200.0 mg/kg/injection, schedule: Q01DX001 (ip), vehicle: saline
  T/C: 111 % of control
[2]
  T/C: 96 % of control
dose: 400.0 mg/kg/injection, schedule: Q01DX001 (ip), vehicle: saline
  T/C: 107 % of control
[3]
  T/C: 104 % of control

## CN1C(C)(C)CC(O)(C(O)(c2ccccc2)c2ccccc2)CC1(C)C
dose: 12.5 mg/kg/injection, schedule: Q04DX003 (ip), vehicle: Klucel (hydroxypropylcellulose) (HPC)
  T/C: 109 % of control
dose: 25.0 mg/kg/injection, schedule: Q04DX003 (ip), vehicle: Klucel (hydroxypropylcellulose) (HPC)
  T/C: 109 % of control
dose: 50.0 mg/kg/injection, schedule: Q04DX003 (ip), vehicle: Klucel (hydroxypropylcellulose) (HPC)
  T/C: 113 % of control

## COc1ccc2[nH]c3c(C)c4ccncc4c(C)c3c2c1
dose: 4.68 mg/kg/injection, schedule: Q01DX009 (ip), vehicle: water
  T/C: 117 % of control
dose: 9.37 mg/kg/injection, schedule: Q01DX009 (ip), vehicle: water
  T/C: 88 % of control
dose: 9.37 mg/kg/injection, schedule: Q04DX003 (ip), vehicle: water
  T/C: 176 % of control
dose: 18.5 mg/kg/injection, schedule: Q01DX009 (ip), vehicle: other
  T/C: 87 % of control
dose: 18.5 mg/kg/injection, schedule: Q04DX003 (ip), vehicle: water
  T/C: 188 % of control
dose: 18.75 mg/kg/injection, schedule: Q01DX001 (ip), vehicle: other
  T/C: 112 % of control
dose: 18.75 mg/kg/injection, schedule: Q01DX001 (ip), vehicle: water
  T/C: 176 % of control
dose: 18.75 mg/kg/injection, schedule: Q01DX009 (ip), vehicle: water
  T/C: 94 % of control
dose: 37.5 mg/kg/injection, schedule: Q01DX001 (ip), vehicle: other
  T/C: 116 % of control
dose: 37.5 mg/kg/injection, schedule: Q01DX001 (ip), vehicle: water
  T/C: 164 % of control
dose: 37.5 mg/kg/injection, schedule: Q04DX003 (ip), vehicle: other
  T/C: 158 % of control
dose: 75.0 mg/kg/injection, schedule: Q01DX001 (ip), vehicle: water
  T/C: 200 % of control
dose: 75.0 mg/kg/injection, schedule: Q04DX003 (ip), vehicle: other
  T/C: 95 % of control
